This passage reports inhibition and IC50 results from patent publication US10874670B2, “Substituted fused heteroaromatic compounds as kinase inhibitors and the use thereof” (IMPACT THERAPEUTICS, INC., priority 2017, dated 2020).

The target of one assay is ATM enzyme (human) (Homo sapiens, UniProt Q13315). The assay is described as follows: ATM kinase assay (HTRF, GST-cMyc-p53 substrate). It counts as biochemical. The note with it: 0.5 h, read-out: Inh (%) of ATM kinase; for inhibition at 1 µM: C 1 μm (final concentration of compound); for inhibition at 0.01 µM: C 0.01 μm (final concentration of compound); for inhibition at 0.1 µM: C 0.1 μm (final concentration of compound). On the procedure: In Vitro Inhibition of ATM by N,N-dimethyl-3-(4-(1-(tetrahydro-2H-pyran-4-yl)-[1,2,4]triazolo[4,3-a]quinoxalin-8-yl)phenoxy)propan-1-amine and its Analogues was Determined by ATM Kinase Assay
The reaction was initiated by the addition of a Mg/ATP mixture and incubation for 30 minutes at room temperature, the reaction was quenched by the addition of a stop solution containing EDTA. Finally, the detection buffer containing the d2-labeled anti-GST monoclonal antibody and the europium-labeled anti-phospho p53 (Ser15) antibody was added. The plate was then read in time resolved fluorescence mode and the homogeneous time resolved fluorescence (HTRF) signal was determined according to the equation: HTRF=10000×(Em665nm/Em620nm). Each compound sample was repeated in duplicate. The experiment negative control was all components except of the ATM enzyme and the positive control contained all components. All reactions were quenched by adding EDTA.
ATM kinase inhibition was detected by using the method described above. The curve equation for calculating IC50 value is as follows:
[formula] • wherein, C is the concentration of compound and D is the slope factor.
A general note: TR-FRET usually uses a lanthanide donor and a delayed reading to cut background.

Assay [1] has as its system human colon cancer cell SW620. The assay is described as follows: MTT assay, growth of SW620 cells, compounds combined with CPT-11. The note with it: Homo sapiens, SW-620, 120 h; combined with CPT-11 (205 nM medium), 5 days, MTT. It is filed as cell-based. How it is done: Inhibitory effects of N,N-dimethyl-3-(4-(1-(tetrahydro-2H-pyran-4-yl)-[1,2,4]triazolo[4,3-a]quinoxalin-8-yl)phenoxy)propan-1-amine and its Analogues Combined with CPT-11 on the Growth of Human Colon Cancer Cell SW620 were Determined by MTT Assay
SW620 cells were digested by trypsinase, centrifuged at 800 rpm for 5 minutes, the supernatant was discarded, resuspended with fresh medium (RPMI 1640 medium+10% FBS) and counted. The cells were seeded into 96-well cell culture plate with appropriate cell density and incubated overnight in a 37° C. 5% CO2 incubator. The stock solutions of the tested compound and the reference compound AZD0156 were serially diluted to 8 concentrations by DMSO at the ratios of 1:3 and 1:10, respectively, the first concentration was 10 μM or 1 μM, and the last concentration was negative control of DMSO (0 μM, the final concentration of DMSO was 1%). 5 μL of each concentration was added to 120 μL of medium (25 times diluted) and mixed by shaking. The overnight cells were taken and the culture medium was removed, 195 μL of fresh medium containing 205 nM CPT-11 was added to each well, and 5 μL of diluted medium containing the corresponding concentration of the tested sample was added respectively, and the culture plate was then placed in the 5% CO2 cell culture incubator at 37° C. for 5 days. After removing the original solution, 100 pt of fresh serum-free DMEM medium containing MTT (0.5 mg/mL) was added to each well, the culture was continued. After 4 hours, the original solution was removed, 100 μL of DMSO was added into each well, the 96-well plates were shaken away from light for 10 minutes and placed in a multi-function reader to read the absorbance at the wavelength of 552/630/690 nm. GraphPad Prism 6.0 was used to analyze the data. The inhibitory activity of compounds on cell proliferation was plotted based on cell viability and compound concentration. The IC50 value was fitted by a sigmoidal dose response curve equation Y=100/(1+10^(Log C−Log IC50)), where C was the concentration of compound.
Table 3 summarizes the inhibitory effects of compounds combined with CPT-11 on the growth of human colon cancer cell SW620 (IC50).
A general note: Formazan colour is commonly taken as a measure of viable cells.

The structures appear in SMILES notation.

ATM enzyme (human), sequence (Q13315 whole entry): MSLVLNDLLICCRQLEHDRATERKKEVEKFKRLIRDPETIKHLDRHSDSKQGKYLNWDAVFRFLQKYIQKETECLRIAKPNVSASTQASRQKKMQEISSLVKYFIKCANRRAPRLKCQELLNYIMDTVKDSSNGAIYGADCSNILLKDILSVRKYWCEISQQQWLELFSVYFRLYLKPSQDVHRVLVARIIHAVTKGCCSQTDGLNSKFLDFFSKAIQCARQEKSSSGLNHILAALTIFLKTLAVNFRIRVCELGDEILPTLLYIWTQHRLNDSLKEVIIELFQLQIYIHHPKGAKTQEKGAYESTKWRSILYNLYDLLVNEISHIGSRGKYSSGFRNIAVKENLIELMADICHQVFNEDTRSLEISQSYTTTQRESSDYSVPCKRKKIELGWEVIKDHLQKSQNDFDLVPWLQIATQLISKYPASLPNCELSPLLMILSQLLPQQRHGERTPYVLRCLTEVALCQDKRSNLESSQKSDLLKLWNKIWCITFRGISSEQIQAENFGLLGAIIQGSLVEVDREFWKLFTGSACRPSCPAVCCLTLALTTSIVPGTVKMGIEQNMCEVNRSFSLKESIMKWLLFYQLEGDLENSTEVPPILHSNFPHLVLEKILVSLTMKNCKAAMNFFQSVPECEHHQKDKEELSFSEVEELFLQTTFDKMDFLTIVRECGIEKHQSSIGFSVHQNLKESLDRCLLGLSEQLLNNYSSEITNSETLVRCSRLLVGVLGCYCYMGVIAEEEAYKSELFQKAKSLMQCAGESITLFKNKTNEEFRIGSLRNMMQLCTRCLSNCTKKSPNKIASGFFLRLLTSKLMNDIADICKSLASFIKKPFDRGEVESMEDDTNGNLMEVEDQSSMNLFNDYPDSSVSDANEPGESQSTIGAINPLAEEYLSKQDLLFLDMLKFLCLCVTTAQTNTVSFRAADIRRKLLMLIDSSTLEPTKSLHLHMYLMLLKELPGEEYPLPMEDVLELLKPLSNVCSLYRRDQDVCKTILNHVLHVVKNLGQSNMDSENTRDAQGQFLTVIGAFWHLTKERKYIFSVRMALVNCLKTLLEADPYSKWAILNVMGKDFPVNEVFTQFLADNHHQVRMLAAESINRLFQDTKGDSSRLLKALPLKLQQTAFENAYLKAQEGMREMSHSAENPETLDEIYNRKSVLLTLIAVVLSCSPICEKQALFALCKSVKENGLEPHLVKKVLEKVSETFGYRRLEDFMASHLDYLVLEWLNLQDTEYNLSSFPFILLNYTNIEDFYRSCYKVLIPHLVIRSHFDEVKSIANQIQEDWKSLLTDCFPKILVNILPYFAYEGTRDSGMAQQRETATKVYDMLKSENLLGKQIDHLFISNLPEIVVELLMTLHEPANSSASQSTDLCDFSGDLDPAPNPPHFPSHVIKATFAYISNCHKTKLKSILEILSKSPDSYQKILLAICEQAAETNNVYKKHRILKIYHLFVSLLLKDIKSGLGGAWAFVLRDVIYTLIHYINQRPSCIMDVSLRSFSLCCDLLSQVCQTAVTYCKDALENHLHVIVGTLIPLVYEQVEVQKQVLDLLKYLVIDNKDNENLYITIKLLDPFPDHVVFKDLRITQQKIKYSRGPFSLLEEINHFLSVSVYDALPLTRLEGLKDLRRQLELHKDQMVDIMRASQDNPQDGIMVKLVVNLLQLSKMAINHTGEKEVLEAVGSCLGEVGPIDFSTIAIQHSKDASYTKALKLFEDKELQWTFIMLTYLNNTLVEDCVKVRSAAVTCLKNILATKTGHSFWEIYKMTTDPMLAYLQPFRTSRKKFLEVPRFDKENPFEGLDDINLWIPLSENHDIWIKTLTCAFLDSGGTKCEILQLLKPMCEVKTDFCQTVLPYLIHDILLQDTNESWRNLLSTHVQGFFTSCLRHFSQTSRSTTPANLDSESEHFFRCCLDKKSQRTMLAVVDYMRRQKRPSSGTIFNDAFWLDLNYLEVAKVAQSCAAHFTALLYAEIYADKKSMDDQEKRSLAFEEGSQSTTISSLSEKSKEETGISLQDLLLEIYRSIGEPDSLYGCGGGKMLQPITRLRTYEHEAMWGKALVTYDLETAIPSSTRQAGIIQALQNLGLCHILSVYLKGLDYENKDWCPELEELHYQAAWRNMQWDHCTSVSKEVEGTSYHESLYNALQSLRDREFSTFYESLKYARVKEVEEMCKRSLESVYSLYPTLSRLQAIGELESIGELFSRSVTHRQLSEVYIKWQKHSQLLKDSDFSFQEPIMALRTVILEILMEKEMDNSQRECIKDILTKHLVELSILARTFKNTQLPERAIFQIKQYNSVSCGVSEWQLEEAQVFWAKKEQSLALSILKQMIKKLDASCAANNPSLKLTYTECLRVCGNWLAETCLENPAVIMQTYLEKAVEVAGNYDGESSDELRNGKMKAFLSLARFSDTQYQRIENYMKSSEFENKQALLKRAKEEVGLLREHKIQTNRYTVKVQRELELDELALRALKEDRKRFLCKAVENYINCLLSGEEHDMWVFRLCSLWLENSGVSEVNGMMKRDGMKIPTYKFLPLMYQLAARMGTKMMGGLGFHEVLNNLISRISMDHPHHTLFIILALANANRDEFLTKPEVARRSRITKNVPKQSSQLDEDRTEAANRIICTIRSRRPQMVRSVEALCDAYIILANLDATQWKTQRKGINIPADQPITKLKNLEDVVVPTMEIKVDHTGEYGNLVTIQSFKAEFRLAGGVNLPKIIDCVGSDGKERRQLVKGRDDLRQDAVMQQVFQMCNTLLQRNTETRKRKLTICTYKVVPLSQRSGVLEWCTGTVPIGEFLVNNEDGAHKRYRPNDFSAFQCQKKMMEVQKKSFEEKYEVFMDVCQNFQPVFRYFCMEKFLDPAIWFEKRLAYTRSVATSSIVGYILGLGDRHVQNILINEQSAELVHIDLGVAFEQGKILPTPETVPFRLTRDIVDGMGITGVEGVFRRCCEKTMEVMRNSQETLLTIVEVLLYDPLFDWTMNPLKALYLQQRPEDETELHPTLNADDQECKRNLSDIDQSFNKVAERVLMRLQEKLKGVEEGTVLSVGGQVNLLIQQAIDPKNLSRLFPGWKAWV

In general, IC50 refers to the midpoint of a concentration-inhibition curve. As for `CN(C)CCCOc1ccc(-c2cnc3ncc4nnc(C5CCOCC5)n4c3c2)cn1` [Example 1, N,N-dimethyl-3-((5-(1-(tetrahydro-2H-pyran-4-yl)pyrido[2,3-e][1,2,4]triazolo[4,3-a]pyrazin-8-yl)pyridin-2-yl)oxy)propan-1-amine], the inhibition at 10 µM on ATM enzyme (human) (C 10 μm (final concentration of compound)) was found to be 90%. Also, the IC50 in assay [1] is more than 100000 nM.
Turning to `CN(C)CCCOc1ccc(-c2cnc3ncc4nnc(C5CCOCC5)n4c3c2)cc1` [Example 2, N,N-dimethyl-3-(4-(1-(tetrahydro-2H-pyran-4-yl)pyrido[2,3-e][1,2,4]triazolo[4,3-a]pyrazin-8-yl)phenoxy)propan-1-amine], the inhibition at 1 µM on ATM enzyme (human) came to 57%. For the same molecule, the IC50 in assay [1] is more than 100000 nM.
The matching figures for `CN(C)CCCOc1ncc(-c2ccc3ncc4nnc(C5CCOCC5)n4c3c2)cn1` [Example 6, N,N-dimethyl-3-((5-(1-(tetrahydro-2H-pyran-4-yl)-[1,2,4]triazolo[4,3-a]quinoxalin-8-yl)pyrimidin-2-yl)oxy)propan-1-amine]: 57% and more than 100000 nM.
Taken in the same sequence, the figures for `CN(C)CCCOc1cnc(-c2ccc3ncc4nnc(C5CCOCC5)n4c3c2)nc1` [Example 7, N,N-dimethyl-3-((2-(1-(tetrahydro-2H-pyran-4-yl)-[1,2,4]triazolo[4,3-a]quinoxalin-8-yl)pyrimidin-5-yl)oxy)propan-1-amine] were 40% and 3100 nM.
The matching figures for `CN(C)CCCOc1cnc(-c2ccc3ncc4nnc(C5CCOCC5)n4c3c2)cn1` [Example 8, N,N-dimethyl-3-((5-(1-(tetrahydro-2H-pyran-4-yl)-[1,2,4]triazolo[4,3-a]quinoxalin-8-yl)pyrazin-2-yl)oxy)propan-1-amine]: 38% and 3300 nM.
For `CN(C)CCOc1ccc(-c2ccc3ncc4nnc(C5CCOCC5)n4c3c2)cc1` [Example 9, N,N-dimethyl-2-(4-(1-(tetrahydro-2H-pyran-4-yl)-[1,2,4]triazolo[4,3-a]quinoxalin-8-yl)phenoxy)ethan-1-amine], the inhibition at 1 µM on ATM enzyme (human) amounted to 72%. In assay [1], the IC50 is 1940 nM.
Taken in the same sequence, the figures for `CN(C)CCCNc1ccc(-c2ccc3ncc4nnc(C5CCOCC5)n4c3c2)cc1` [Example 10, N-(3-(dimethylamino)propyl)-4-(1-(tetrahydro-2H-pyran-4-yl)-[1,2,4]triazolo[4,3-a]quinoxalin-8-yl)aniline] were 85% and 5210 nM.
For the molecule `CN1CCN(c2ccc(-c3ccc4ncc5nnc(C6CCOCC6)n5c4c3)cc2)CC1` [Example 13, 8-(4-(4-methylpiperazin-1-yl)phenyl)-1-(tetrahydro-2H-pyran-4-yl)-[1,2,4]triazolo[4,3-a]quinoxaline], at ATM enzyme (human), the inhibition at 0.01 µM was found to be 8%, the inhibition at 0.1 µM stood at 49% and the inhibition at 1 µM came out at 93%. In addition, in assay [1], the IC50 is more than 100000 nM.
The matching figures for `C[C@@H]1CN(c2ccc(-c3ccc4ncc5nnc(C6CCOCC6)n5c4c3)cc2)C[C@H](C)N1C` [Example 14, 1-(tetrahydro-2H-pyran-4-yl)-8-(4-((3S,5R)-3,4,5-trimethylpiperazin-1-yl)phenyl)-[1,2,4]triazolo[4,3-a]quinoxaline]: 20%, 52%, 96% and more than 100000 nM.
For the molecule `C[C@@H]1CN(c2nnc3cnc4ccc(-c5ccc(OCCCN(C)C)nc5)cc4n23)C[C@H](C)N1C` [Example 26, N,N-dimethyl-3-((5-(1-((3S,5R)-3,4,5-trimethylpiperazin-1-yl)-[1,2,4]triazolo[4,3-a]quinoxalin-8-yl)pyridin-2-yl)oxy)propan-1-amine], in assay [1], the IC50 turned out to be 57 nM.
Same read-out and setting: with `CNC1CCN(c2ccc(-c3ccc4ncc5nnc(N6C[C@@H](C)N(C)[C@@H](C)C6)n5c4c3)cc2F)CC1` [Example 94, N-methyl-1-(2-fluoro-4-(1-((3S,5R)-3,4,5-trimethylpiperazin-1-yl)-[1,2,4]triazolo[4,3-a]quinoxalin-8-yl)phenyl)piperidin-4-amine] the figure was 13 nM; with `CCNC1CCN(c2ccc(-c3ccc4ncc5nnc(N6C[C@@H](C)N(C)[C@@H](C)C6)n5c4c3)cc2F)CC1` [Example 96, N-ethyl-1-(2-fluoro-4-(1-((3S,5R)-3,4,5-trimethylpiperazin-1-yl)-[1,2,4]triazolo[4,3-a]quinoxalin-8-yl)phenyl)piperidin-4-amine], 15 nM; with `C[C@@H]1CN(c2nnc3cnc4ccc(-c5ccc(OCCCN(C)C)c(C(F)(F)F)c5)cc4n23)C[C@H](C)O1` [Example 102, N,N-dimethyl-3-(2-(trifluoromethyl)-4-(1-((2S,6R)-2,6-dimethylmorpholino)-[1,2,4]triazolo[4,3-a]quinoxalin-8-yl)phenoxy)propan-1-amine], 21.1 nM.
On the same count and under the same terms, the value for `C[C@@H]1CN(c2nnc3cnc4ccc(-c5ccc(N6CCC(N(C)C)CC6)cc5)cc4n23)C[C@H](C)O1` [Example 103, 1-(4-(1-((2S,6R)-2,6-dimethylmorpholino)-[1,2,4]triazolo[4,3-a]quinoxalin-8-yl)phenyl)-N,N-dimethylpiperidin-4-amine] was 176 nM; that for `C[C@@H]1CN(c2nnc3cnc4ccc(-c5ccc(N6CCC(N(C)C)CC6)c(F)c5)cc4n23)C[C@H](C)O1` [Example 104, 1-(4-(1-((2S,6R)-2,6-dimethylmorpholino)-[1,2,4]triazolo[4,3-a]quinoxalin-8-yl)-2-fluorophenyl)-N,N-dimethylpiperidin-4-amine] was 28.2 nM; that for `CN(C)CCCOc1ccc(-c2ccc3ncc4nnc(N5CCCCC5)n4c3c2)cc1C(F)(F)F` [Example 111, N,N-dimethyl-3-(4-(1-(piperidin-1-yl)-[1,2,4]triazolo[4,3-a]quinoxalin-8-yl)-2-(trifluoromethyl)phenoxy)propan-1-amine] was 16.2 nM.
Consider `CN(C)C1CCN(c2ccc(-c3ccc4ncc5nnc(N6CCCCC6)n5c4c3)cc2F)CC1` [Example 112, 1-(2-fluoro-4-(1-(piperidin-1-yl)-[1,2,4]triazolo[4,3-a]quinoxalin-8-yl)phenyl)-N,N-dimethylpiperidin-4-amine], for which the IC50 in assay [1] was determined as 21.9 nM.
With `CNC1CCN(c2ccc(-c3ccc4ncc5nnc(N6C[C@@H](C)N(C)[C@@H](C)C6)n5c4n3)cc2F)CC1` [Example 117, 1-(2-fluoro-4-(9-((3S,5R)-3,4,5-trimethylpiperazin-1-yl)pyrido[3,2-e][1,2,4]triazolo[4,3-a]pyrazin-2-yl)phenyl)-N-methylpiperidin-4-amine], the IC50 in assay [1] came out at 47.5 nM.
As for `CCNC1CCN(c2ccc(-c3ccc4ncc5nnc(N6C[C@@H](C)N(C)[C@@H](C)C6)n5c4n3)cc2F)CC1` [Example 119, N-ethyl-1-(2-fluoro-4-(9-((3S,5R)-3,4,5-trimethylpiperazin-1-yl)pyrido[3,2-e][1,2,4]triazolo[4,3-a]pyrazin-2-yl)phenyl)piperidin-4-amine], in assay [1], the IC50 was 43.1 nM.
On the same count and under the same terms, with `CN(C)CCCOc1ccc(-c2ccc3ncc4nnc(C5CCOCC5)n4c3n2)cc1F` [Example 139, 3-(2-fluoro-4-(9-(tetrahydro-2H-pyran-4-yl)pyrido[3,2-e][1,2,4]triazolo[4,3-a]pyrazin-2-yl)phenoxy)-N,N-dimethylpropan-1-amine] the figure was 262 nM; with `CN(C)CCCOc1ccc(-c2ccc3ncc4nnc(C5CCOCC5)n4c3n2)cc1Cl` [Example 140, 3-(2-chloro-4-(9-(tetrahydro-2H-pyran-4-yl)pyrido[3,2-e][1,2,4]triazolo[4,3-a]pyrazin-2-yl)phenoxy)-N,N-dimethylpropan-1-amine], 213 nM.
